Data taken from patent publication US6555576B1, “Method for treating exercise induced asthma” (SmithKline Beecham Corporation, priority 1999, dated 2003).
pIC50: −log10 of the molar value.

Experiments:
[1] = test system: low affinity form of PDE 4 (LPDE 4); experiment: PDE 4 catalytic activity assay (low affinity form); format: biochemical, human; settings: HPDE 4 IC50 divided by LPDE 4 IC50
Method: Consequently, inhibition of recombinant PDE 4 catalytic activity primarily reflects the actions of compounds at LPDE 4. Inhibition of PDE 4 catalytic activity can thus be used as an index of the potency of compounds at LPDE 4.
Isolated human monocyte PDE 4 and hrPDE 4 was determined to exist primarily in the low affinity form.

[2] = target: T1, high affinity rolipram binding site of PDE 4 (HPDE 4); experiment: [3H]-rolipram binding assay (high affinity site); settings: competition with 1 nM [3H]-rolipram, rat brain high speed supernatants, 1 hour at 30° C.
T1 construct: Rat brain high speed supernatants were used as a source of protein
Method: Rat brain high speed supernatants were used as a source of protein. […] The assay was run for 1hour at 30° C. The reaction was terminated and bound ligand was separated from free ligand using a Brandel cell harvester. Competition for the high affinity binding site was assessed under conditions that were identical to those used for measuring low affinity PDE activity, expect that [^3H]-cAMP was not present.

acid secretion = settings: rats, particularly in combination with an activator of adenylate cyclase such as histamine; cited from earlier work
patients with EIA = experiment: Exercise challenge study in patients with EIA; format: in vivo, human
Method: A randomized, double-blind, placebo-controlled, two-period cross-over study was conducted to assess the efficacy, safety and tolerability of cis-[4-cyano-4-(3-cyclopentyloxy-4-methoxyphenyl)cyclohexan-1-carboxylate] in patients with EIA. 27 patients with EIA were randomized to receive the compound, 10 mg BID immediate release tablet or placebo, for 7 days followed by a 7 day washout and the alternate treatment for 7 days. Exercise challenge tests were performed after a single dose on day 1, and again on day 7 (pre-dose and three hours post-dose).
The patient population consisted of non-smoking men or women, ages 18 to 60 years with EIA such that:
a) their forced expiratory volume in one second (FEV1) was greater than or equal to 70% of predicted normal,
b) the documented fall in FEV1 was greater than or equal to 15% in response to exercise testing at a screening visit, and
c) they were not taking inhaled corticosteroids or other controller medications for asthma.
The Exercise Challenge Protocol was as follows. Patients were exercised on a motorized treadmill for six minutes at target heart rate. Speed and inclination were adjusted to achieve a target heart rate for each patient of 85% of age-adjusted maximum predicted. Patients breathed compressed air (0% humidity at room temperature) during the test through a face mask. Pulmonary function tests (KoKo pneumotach) were performed 1, 5, 10, 15, 20, 30 and 45 minutes after completion of the test and continued thereafter if FEV1 had not returned to within 10% of the baseline.
The primary efficacy variable was the maximum percentage decrease (MPD) in the FEV1 in response to exercise. The results indicated significant improvement in MPD FEV1 after one dose of the compound, from a mean MPD of 32.88% to 23.57%. There was an incremental effect of the compound after 7 days of dosing with further improvement in mean MPD FEV1 to 21.8%. […] See also, Am. J. Resp. Crit. Care Med. 1998:157; A413, incorporated herein in its entirety by reference.

[3] = human, in vivo; cited from earlier work

For `COc1ccc(C2CN(Cc3ccc(N)cc3)C(=O)N2)cc1OC1CCCC1` (stereo not drawn) [1-(4-aminobenzyl)-4-(3-cyclopentyloxy-4-methoxyphenyl)-2-imidazolidinone], the “High/Low Ratio (IC50 high affinity / IC50 low affinity)” value [1] was 0.07 and the pIC50 [2] was 7.00.
For `COc1ccc(C2CCC(c3nnn[nH]3)C2)cc1OC1CCCC1` (stereo not drawn) [1-(5-tetrazole)-3-(3-cyclopentyloxy-4-methoxyphenyl)cyclopentane], the “High/Low Ratio (IC50 high affinity / IC50 low affinity)” value [1] was 0.0018.
With `COc1ccc(C2CCN(Cc3ccc(NC(=NC#N)SC)cc3)C2=O)cc1OC1CCCC1` (stereo not drawn) [3-(cyclopentyl-oxy-4-methoxyphenyl)-1-(4-N′-[N2-cyano-S-methyl-isothioureido]benzyl)-2-pyrrolidone] the “High/Low Ratio (IC50 high affinity / IC50 low affinity)” value [1] was 0.30.
In the case of `CCOC(=O)C=C1C[C@H](c2ccc(OC)c(OC3CCCC3)c2)CN1` [(R)-(+)-ethyl [4-(3-cyclopentyloxy-4-methoxyphenyl)pyrrolidine-2-ylidene]acetate], the “High/Low Ratio (IC50 high affinity / IC50 low affinity)” value [1] was 2.143.
In the case of `CCOC(=O)C=C1C[C@@H](c2ccc(OC)c(OC3CCCC3)c2)CN1` [(S)-(−)-ethyl [4-(3-cyclopentyloxy-4-methoxyphenyl)pyrrolidine-2-ylidene]acetate], the “High/Low Ratio (IC50 high affinity / IC50 low affinity)” value [1] was “.98”.
With `CC(C)Cn1c(=O)n(C)c(=O)c2[nH]cnc21` [IBMX, reference compound] the “High/Low Ratio (IC50 high affinity / IC50 low affinity)” value [1] was 0.698.
For `NC(=O)C(=O)NCCc1ccc(OC(F)F)c(OC(F)F)c1` [N-[2-(3,4-bisdifluoromethoxy-phenyl)ethyl]oxamide], the “High/Low Ratio (IC50 high affinity / IC50 low affinity)” value [1] was 0.25 and the pIC50 [2] was 6.40.
In the case of `COc1ccc(CCNC(=O)C(N)=O)cc1OC1CCCC1` [N-[2-(3-cyclopentyloxy-4-methoxyphenyl)ethyl]oxamide], the “High/Low Ratio (IC50 high affinity / IC50 low affinity)” value [1] was 0.013.
For `CCCCOc1cc(CC2CNC(=O)N2)ccc1OC` (stereo not drawn) [Ro 20-1724, reference compound], the pIC50 [2] is listed as 6.72 and the “effect on acid secretion” value (acid secretion) is listed as “enhance acid secretion”.
In the case of `COc1ccc(C2(C#N)CCC(C(=O)O)CC2)cc1OC1CCCC1` (stereo not drawn) [cis-[4-cyano-4-(3-cyclopentyloxy-4-methoxyphenyl)cyclohexan-1-carboxylate]], the safety and tolerability (patients with EIA; 10 mg BID for 7 days, patients with EIA) was “safe and well tolerated, with no treatment-related serious adverse experiences or withdrawals”, the “effects in humans suffering from EIA” value (patients with EIA; administered to humans suffering from EIA) was “reduced inflammation, bronchodilation and pulmonary neuromodulation” and the “mean maximum percentage decrease (MPD) in FEV1 in response to exercise” value (patients with EIA; after 7 days of dosing, 10 mg BID) was 21.8%. The “mean maximum percentage decrease (MPD) in FEV1 in response to exercise” value (patients with EIA; after one dose, 10 mg immediate release tablet, improved from mean MPD of 32.88%) was 23.57% and the “patients with a fall in FEV1 of less than or equal to 15% after exercise” value (patients with EIA; after one week of treatment, 10 mg BID) was 40%.
For `CCCCn1c(=O)c2c(ncn2CC(C)=O)n(CCCC)c1=O` [denbufylline, 7-acetonyl, 1,3-dibutyixanthine], the “side effects in clinical studies” value [3] is given as “may include pyrosis, nausea and emesis”.
In the case of `OCCN(CCO)c1nc(N2CCCCC2)c2nc(N(CCO)CCO)nc(N3CCCCC3)c2n1` [dipyridamole, 2,2′,2″,2′-[(4,8-dipiperldinopyrimido[5,4-d]pyrmidine-2-6-diyl)dinitrilo]tetraethanol, reference compound], the “High/Low Ratio (IC50 high affinity / IC50 low affinity)” value [1] was 6.25.
For `COc1ccc(C2CNC(=O)C2)cc1OC1CCCC1` (stereo not drawn) [rolipram], the “side effects in clinical studies” value [3] is listed as “has psychotropic activity and produces gastrointestinal effects, e.g., pyrosis, nausea and emesis” and the “effect on acid secretion” value (acid secretion) is listed as “enhance acid secretion”.
